{"source": "paper PMC11653257", "about": "“Organometallic Half-Sandwich Complexes of 8-Hydroxyquinoline-Derived Mannich Bases with Enhanced Solubility: Targeting Multidrug Resistant Cancer” (Inorganic Chemistry, 2024)", "key": {"[1]": {"tested_on": "methicillin-resistant S. aureus (MRSA) ATCC 43300", "experiment": "Antibacterial MIC, MRSA", "type": "cell-based, Staphylococcus aureus", "conditions": "Mueller Hinton Broth, 37 °C, 18 h", "method": "(§1) Escherichia coli (ATCC 25922) was used as Gram-negative strain and Staphylococcus aureus (ATCC 25923, methicillin-resistant (MRSA) ATCC 43300) strains were applied as Gram-positive bacterial cultures in the experiments. MIC values of the compounds were determined in 96-well plates based on the Clinical and Laboratory Standard Institute guidelines (CLSI guidelines).[76] The stock solutions of the compounds (same as those used for cytotoxicity experiments) were diluted in 100 μL of Mueller Hinton Broth. Then, 10^–4 dilution of an overnight bacterial culture in 100 μL of medium was added to each well, with the exception of the medium control wells."}, "[2]": {"tested_on": "Staphylococcus aureus (ATCC 25923)", "experiment": "Antibacterial MIC, S. aureus", "type": "cell-based", "conditions": "Mueller Hinton Broth, 37 °C, 18 h", "method": "as §1"}, "[3]": {"tested_on": "Escherichia coli (ATCC 25922)", "experiment": "Antibacterial MIC, E. coli", "type": "cell-based", "conditions": "Mueller Hinton Broth, 37 °C, 18 h", "method": "as §1"}, "MES-SA/Dx5 [4]": {"tested_on": "MES-SA/Dx5", "experiment": "Cytotoxicity in double coculture, MES-SA/Dx5 eGFP", "conditions": "for SR = IC50 (MES-SA)/IC50 (MES-SA/Dx5): double coculture; for IC50: read-out: IC50 MES-SA/Dx5", "description": "(§2) Therefore, the novel half-sandwich complexes (1–4) and their corresponding ligands were tested against a coculture of MES-SA and MES-SA/Dx5 cells expressing the fluorescent proteins mCherry or eGFP, respectively.[62]\n(§3) The tested compounds were dissolved in 50% (v/v) DMSO/PBS’ buffer to prepare 5–10 mM stock solutions, which were diluted in complete culture medium. Constitutive expression of the fluorescent proteins allowed multiplexing in cytotoxicity experiments.[62] […] Serial dilutions of the compounds were added 24 h after seeding. To address the effect of P-gp function, TQ was added at a nontoxic concentration (0.4 μM) 15 min before the test compounds. […] IC50 values and standard deviation were calculated from average pIC50 values from at least 3 independent measurements."}, "MES-SA [5]": {"tested_on": "MES-SA", "experiment": "Cytotoxicity in double coculture, MES-SA mCherry", "conditions": "read-out: IC50 MES-SA, 144 h", "description": "as §2, §3"}, "MES-SA/B1": {"tested_on": "MES-SA/B1", "experiment": "Cytotoxicity in triple coculture, MES-SA/B1 mOrange", "type": "cell-based, human", "method": "Cell lines were purchased from the American Type Culture Collection (ATCC). MES-SA/B1 is a human MDR1-transfected derivative of MES-SA, and MES-SA mCherry, MES-SA/B1 mOrange, and MES-SA/Dx5 eGFP were engineered to stably express the respective fluorescent proteins previously.[62] Cells were kept in culture medium (DMEM) supplemented with 10% fetal bovine serum, 2 mM L-glutamine, 100 units/mL penicillin, and 100 μg/mL streptomycin (Thermo Fisher). One week before use, MES-SA/Dx5 eGFP cells were treated with 0.5 μM doxorubicin to ensure ABCB1/P-gp expression.\nThe tested compounds were dissolved in 50% (v/v) DMSO/PBS’ buffer to prepare 5–10 mM stock solutions, which were diluted in complete culture medium. Constitutive expression of the fluorescent proteins allowed multiplexing in cytotoxicity experiments.[62] Cells were mixed before seeding in 384-well plates: in double cocultures, MES-SA mCherry and MES-SA/Dx5 eGFP cells were seeded at 1250–1250 cells/well (in total 2500 cells/well); while in triple cocultures, MES-SA mCherry, MES-SA/Dx5 eGFP and MES-SA/B1 mOrange cells were seeded at 800–800–800 cells/well (in total 2400 cells/well). Serial dilutions of the compounds were added 24 h after seeding. To address the effect of P-gp function, TQ was added at a nontoxic concentration (0.4 μM) 15 min before the test compounds. The intensity of the fluorescent proteins, which is proportional to cell mass, was measured after 144 h of incubation at the respective fluorescent channels (excitation/emission: eGFP: 485 nm/510 nm; mOrange: 545 nm/567 nm; mCherry: 585 nm/610 nm). pIC50 values were calculated by a custom program written by Judit Sessler in C#.[62] IC50 values and standard deviation were calculated from average pIC50 values from at least 3 independent measurements."}, "[6]": {"target": "human serum albumin (HSA), site II (Homo sapiens, UniProt P02768)", "sequence (P02768 25-609)": "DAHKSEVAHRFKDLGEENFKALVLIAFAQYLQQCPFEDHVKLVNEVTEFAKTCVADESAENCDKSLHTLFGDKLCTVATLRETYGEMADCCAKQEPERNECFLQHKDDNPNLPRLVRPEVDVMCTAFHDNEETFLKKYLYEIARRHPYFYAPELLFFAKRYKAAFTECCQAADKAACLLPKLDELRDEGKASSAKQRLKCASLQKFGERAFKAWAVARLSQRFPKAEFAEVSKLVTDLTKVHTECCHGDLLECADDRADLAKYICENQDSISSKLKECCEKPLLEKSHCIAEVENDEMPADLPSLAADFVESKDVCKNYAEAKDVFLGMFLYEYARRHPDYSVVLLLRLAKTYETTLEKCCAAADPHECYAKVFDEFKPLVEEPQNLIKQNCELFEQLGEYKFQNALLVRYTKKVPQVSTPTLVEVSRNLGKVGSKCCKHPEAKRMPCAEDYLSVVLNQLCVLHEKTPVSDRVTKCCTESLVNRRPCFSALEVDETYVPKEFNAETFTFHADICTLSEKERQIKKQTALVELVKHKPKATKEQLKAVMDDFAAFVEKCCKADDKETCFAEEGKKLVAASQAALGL", "experiment": "HSA dansylglycine (DG) site marker displacement", "description": "(§4) Next, spectrofluorometric measurements were also performed to gain insight into the binding interactions that may occur in the hydrophobic binding sites of HSA. Tryptophan (Trp214) quenching experiments were conducted for the complexes (1–4) (for complex (3) see Figure S31) and their ligands). […] To monitor the binding at site II, site marker displacement experiments were performed using dansylglycine (DG).\n(§5) Fluorescence measurements were carried out on a Fluoromax (Horiba Jobin Yvon, Longjumeau, France) spectrofluorometer using a 1 cm × 1 cm quartz cuvette. […] Excitation wavelengths were 295 nm for Trp-214 quenching and 340 nm for the DG displacement studies. The calculated conditional stability constants for HSA–complex species were obtained using the computer program HypSpec.[64] Calculations always were based on data obtained from at least two independent measurements."}, "[7]": {"experiment": "n-octanol/water distribution coefficient (shake-flask)", "type": "physicochemical", "conditions": "pH 7.4", "method": "The exchange of the coligand (H2O/Cl^–) changes the overall charge of the complex, thus affecting lipophilicity. […] The traditional shake-flask method was used to obtain distribution coefficients of the ligands as well as of the complexes in n-octanol/buffered aqueous solution (20 mM phosphate, pH = 7.4) at different chloride ion concentrations (4, 24, and 100 mM) using UV–vis spectrophotometry (Agilent Cary 8454 diode array spectrophotometer, Santa Clara, CA, USA) for the analysis. The compounds were dissolved in buffered aqueous solutions previously saturated with n-octanol. Then the aqueous and n-octanol phases were gently mixed in different volume ratios (using 1:60 for the ligands, 1:1 for the RhCp* and 1:2 for the RuCym complexes ratios of n-octanol to buffered aqueous solution volume) for 4 h, followed by phase separation. Then the UV–vis spectrum of the aqueous or n-octanol phase was recorded and compared to the reference spectrum. Stock solutions were made in the aqueous phase, and distribution coefficients (DpH) were calculated by the following equation: [drawing 3]"}, "[8]": {"target": "human serum albumin (HSA), Trp214 / site I (Homo sapiens, UniProt P02768)", "sequence (P02768 25-609)": "as above", "experiment": "HSA Trp214 fluorescence quenching", "description": "as §4, §5"}, "Colo320": {"tested_on": "Colo320", "experiment": "Cytotoxicity, Colo320", "type": "cell-based, human", "conditions": "this work", "excerpt": "Supplementary Information\n(11 pictures or pasted objects on this page, not shown here)"}, "MES-SA [9]": {"tested_on": "MES-SA", "conditions": "monoculture, PrestoBlue; ref SI3; cited from earlier work"}, "MES-SA/Dx5 [10]": {"tested_on": "MES-SA/Dx5", "conditions": "monoculture, ref SI3, cited from earlier work"}}, "note": "Read-outs that look alike come from different tables or passages of the source."}
{"compound": "[RhCp*(HQCl-Pip)Cl]Cl [(3)]", "values": [{"measurement": "MIC", "setting": "[1]", "result": 25, "unit": "µM"}, {"measurement": "MIC", "setting": "[2]", "result": 50, "unit": "µM"}, {"measurement": "MIC", "setting": "[3]", "result": 50, "unit": "µM"}, {"measurement": "SR = IC50 (MES-SA)/IC50 (MES-SA/Dx5)", "setting": "MES-SA/Dx5 [4]; + 0.4 μM tariquidar (TQ)", "result": 1.3}, {"measurement": "SR = IC50 (MES-SA)/IC50 (MES-SA/Dx5)", "setting": "MES-SA/Dx5 [4]; without TQ", "result": 9.1}, {"measurement": "IC50", "setting": "MES-SA/Dx5 [4]; double coculture with MES-SA, 144 h, without TQ", "result": 220, "unit": "nM"}, {"measurement": "IC50", "setting": "MES-SA [5]; double coculture with MES-SA/Dx5, without TQ", "result": 2040, "unit": "nM"}, {"measurement": "SR B1 = IC50 (MES-SA)/IC50 (MES-SA/B1)", "setting": "MES-SA/B1", "result": 2.9}, {"measurement": "IC50", "setting": "MES-SA/B1; 144 h", "result": 740, "unit": "nM"}, {"measurement": "logK’(DG)", "setting": "[6]; cHSA = cDG = 1 μM, λEX = 335 nm (DG), pH 7.4 (PBS’), […], 24 h", "result": "5.0 ± 0.1"}, {"measurement": "logD7.4", "setting": "[7]; c(Cl–) = 4 mM", "result": "+0.34 ± 0.01"}, {"measurement": "logD7.4", "setting": "[7]; c(Cl–) = 24 mM", "result": "+0.58 ± 0.01"}, {"measurement": "logD7.4", "setting": "[7]; c(Cl–) = 100 mM", "result": "+0.60 ± 0.01"}, {"measurement": "logK’(quenching)", "setting": "[8]; 1 μM HSA, λEX = 295 nm (Trp-214), pH 7.4 (PBS’), […], 24 h", "result": "5.1 ± 0.1"}]}
{"compound": "Oc1c(CN2CCCCC2)cc(Cl)c2cccnc12", "note": "[HQCl-pip, 5-chloro-7-(piperidin-1-ylmethyl)quinolin-8-ol]", "values": [{"measurement": "MIC", "setting": "[1]; Staphylococcus aureus", "result": 25, "unit": "µM"}, {"measurement": "MIC", "setting": "[2]; Staphylococcus aureus, ATCC25923", "result": 50, "unit": "µM"}, {"measurement": "MIC", "setting": "[3]; Escherichia coli, ATCC25922", "result": 50, "unit": "µM"}, {"measurement": "IC50", "setting": "MES-SA/Dx5 [4]; Homo sapiens, MES-SA/Dx5, 144 h", "result": 90, "unit": "nM"}, {"measurement": "SR (Colo205 / Colo320)", "setting": "Colo320", "result": 2.4}, {"measurement": "IC50", "setting": "MES-SA [5]; Homo sapiens, MES-SA", "result": 1090, "unit": "nM"}, {"measurement": "IC50", "setting": "MES-SA/B1; Homo sapiens, MES-SA/B1, 144 h", "result": 380, "unit": "nM"}, {"measurement": "Kd", "setting": "[6]", "result": 3980, "unit": "nM"}, {"measurement": "logD at 4 h", "setting": "[7]; n-octanol/buffered aqueous solution, n-octanol/H2O, read-out: log D7.4", "result": 2.54}, {"measurement": "IC50", "setting": "MES-SA [9]", "result": "2490 ± 390", "unit": "nM"}, {"measurement": "IC50", "setting": "MES-SA/Dx5 [10]; PrestoBlue", "result": "290 ± 50", "unit": "nM"}, {"measurement": "SR (MES-SA / MES-SA/Dx5)", "setting": "MES-SA/Dx5 [10]; + 1 µM TQ", "result": 1.31}, {"measurement": "SR (MES-SA / MES-SA/Dx5)", "setting": "MES-SA/Dx5 [10]", "result": 8.71}, {"measurement": "Kd", "setting": "[8]", "result": 7940, "unit": "nM"}]}
